Measured values published in ChEMBL document CHEMBL3994621, “Curculactones A and B induced the differentiation of C3H10T1/2 and MC3T3-E1 cells to osteoblasts” (Bioorg Med Chem Lett, 2017).
Active and inactive are the calls of the source. The calls are words filed in the database; no cut-off is given here.

Key:
MC3T3-E1 [1] = experiment: Induction of osteoblast differentiation in […] MC3T3-E1 cells assessed as increase in ALP activity at 5 uM after 4 days using BCIP/NBT liquid substrate; assay type: functional, cell-based
MC3T3-E1 [2] = experiment: Induction of osteoblast differentiation in […] MC3T3-E1 cells assessed as increase in Runx2 mRNA expression at 5 uM after 4 days by RT-PCR method; assay type: functional, cell-based
C3H 10T1/2 [3] = experiment: Induction of osteoblast differentiation in mouse C3H10T1/2 cells assessed as increase in ALP mRNA expression at 5 uM after 4 days by RT-PCR method; assay type: functional, cell-based
C3H 10T1/2 [4] = experiment: Cytotoxicity against mouse C3H10T1/2 cells assessed as reduction in cell viability up to 5 uM after 48 hrs by MTT assay; assay type: cell-based; conditions: c3h 10t1/2, 48 h
MC3T3-E1 [5] = experiment: Induction of osteoblast differentiation in […] MC3T3-E1 cells assessed as increase in Dlx5 mRNA expression at 5 uM after 4 days by RT-PCR method; assay type: functional, cell-based
C3H 10T1/2 [6] = experiment: Induction of osteoblast differentiation in mouse C3H10T1/2 cells assessed as increase in Runx2 mRNA expression at 5 uM after 4 days by RT-PCR method; assay type: functional, cell-based
C3H 10T1/2 [7] = experiment: Induction of osteoblast differentiation in mouse C3H10T1/2 cells assessed as increase in osteocalcin mRNA expression at 5 uM after 4 days by RT-PCR method; assay type: functional, cell-based
MC3T3-E1 [8] = experiment: Induction of osteoblast differentiation in […] MC3T3-E1 cells assessed as increase in ALP mRNA expression at 5 uM after 4 days by RT-PCR method; assay type: functional, cell-based
MC3T3-E1 [9] = experiment: Induction of osteoblast differentiation in […] MC3T3-E1 cells assessed as increase in osteocalcin mRNA expression at 5 uM after 4 days by RT-PCR method; assay type: functional, cell-based
C3H 10T1/2 [10] = experiment: Induction of osteoblast differentiation in mouse C3H10T1/2 cells assessed as increase in Dlx5 mRNA expression at 5 uM after 4 days by RT-PCR method; assay type: functional, cell-based
[11] = Solubility of the compound in DMSO; assay type: physicochemical
MC3T3-E1 [12] = experiment: Induction of mineralization in […] MC3T3-E1 cells at 5 uM after 14 days by alizarin red S staining based assay; assay type: functional, cell-based

SMILES	Activity (MC3T3-E1 [1])	Activity (MC3T3-E1 [2])	Activity (C3H 10T1/2 [3])	Activity (C3H 10T1/2 [4])	Activity (MC3T3-E1 [5])	Activity (C3H 10T1/2 [6])	Activity (C3H 10T1/2 [7])	Activity (MC3T3-E1 [8])	Activity (MC3T3-E1 [9])	Activity (C3H 10T1/2 [10])	solubility [11]	Activity (MC3T3-E1 [12])
COc1cc([C@H]2CC(=O)O[C@H]2C)ccc1O [CURCULACTONE A]	Active	Active	Active	Non-Toxic	Active	Active	Active	Active	Active	Active	Soluble	Active
COc1cc(O)cc([C@@H]2CC(=O)O[C@H]2C)c1 [CURCULACTONE B]	Active	Active	Active	Non-Toxic	Active	Active	Active	Active	Active	Active	Soluble	Active
